Laboratory results: patent US20260262643A1, “HERBICIDAL BENZOXAZINES” (FMC CORPORATION, priority 2022, published 2026)

Tests used:
horseweed = experiment: Test C postemergence; assay type: in vivo, Erigeron canadensis; conditions: postemergence, 10 days
Procedure, shortened: (§1)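 Visual injury score, 0–100 (100 = complete control), taken 10 days after treatment relative to untreated controls. Pre: directed spray onto soil over sown seeds. Post: foliar spray at one- to two-leaf stage, 2–10 cm. Solvent/surfactant formulation; loam–sand soil; greenhouse.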

barnyardgrass [1] = experiment: Test C preemergence; assay type: in vivo, Echinochloa crusgalli; conditions: preemergence, 0 to 100 scale (0 no effect, 100 complete control)
Procedure, shortened: as §1

pigweed, palmer [2] = experiment: Test C postemergence; assay type: in vivo, Amaranthus palmeri; conditions: postemergence, 10 days
Procedure, shortened: as §1

soybean [3] = experiment: Test C postemergence; assay type: in vivo, Glycine max; conditions: postemergence, 10 days
Procedure, shortened: as §1

wheat [4] = experiment: Test C preemergence; assay type: in vivo, Triticum aestivum; conditions: preemergence, 0 to 100 scale (0 no effect, 100 complete control)
Procedure, shortened: as §1

oat, wild [5] = experiment: Test C preemergence; assay type: in vivo, Avena fatua; conditions: preemergence, 0 to 100 scale (0 no effect, 100 complete control)
Procedure, shortened: as §1

ducksalad = experiment: Test D flooded paddy test; assay type: in vivo, Heteranthera limosa; conditions: 250 g ai/ha, applied to paddy water, visual rating after 13 to 14 days, scale 0 to 100 (0 no effect, 100 complete control)
Procedure, shortened: (§2)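 2-leaf plants; flood 3 cm above soil; compound dosed into paddy water; greenhouse 13–14 d; visual rating vs controls, 0–100 (100 = complete control); dash = not tested.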

sedge, umbrella = experiment: Test D flooded paddy test; assay type: in vivo, Cyperus difformis; conditions: 250 g ai/ha, applied to paddy water, visual rating after 13 to 14 days, scale 0 to 100 (0 no effect, 100 complete control)
Procedure, shortened: as §2

wheat [6] = experiment: Test C postemergence; assay type: in vivo, Triticum aestivum; conditions: postemergence, 10 days
Procedure, shortened: as §1

corn [7] = experiment: Test C preemergence; assay type: in vivo, Zea mays; conditions: preemergence, 0 to 100 scale (0 no effect, 100 complete control)
Procedure, shortened: as §1

blackgrass [8] = experiment: Test C preemergence; assay type: in vivo, Alopecurus myosuroides; conditions: preemergence, 0 to 100 scale (0 no effect, 100 complete control)
Procedure, shortened: as §1

kochia [9] = experiment: Test C postemergence; assay type: in vivo, Bassia scoparia; conditions: postemergence, 10 days
Procedure, shortened: as §1

blackgrass [10] = experiment: Test C postemergence; assay type: in vivo, Alopecurus myosuroides; conditions: postemergence, 10 days
Procedure, shortened: as §1

ryegrass, Italian [11] = experiment: Test C preemergence; assay type: in vivo, Lolium multiflorum; conditions: preemergence, 0 to 100 scale (0 no effect, 100 complete control)
Procedure, shortened: as §1

corn [12] = experiment: Test C postemergence; assay type: in vivo, Zea mays; conditions: postemergence, 10 days
Procedure, shortened: as §1

ragweed [13] = experiment: Test C postemergence; assay type: in vivo, Ambrosia artemisiifolia; conditions: postemergence, 10 days
Procedure, shortened: as §1

green foxtail [14] = experiment: Test C postemergence; assay type: in vivo, Setaria viridis; conditions: postemergence, 10 days
Procedure, shortened: as §1

oat, wild [15] = experiment: Test C postemergence; assay type: in vivo, Avena fatua; conditions: postemergence, 10 days
Procedure, shortened: as §1

soybean [16] = experiment: Test C preemergence; assay type: in vivo, Glycine max; conditions: preemergence, 0 to 100 scale (0 no effect, 100 complete control)
Procedure, shortened: as §1

rice = experiment: Test D flooded paddy test; assay type: in vivo, Oryza sativa; conditions: 250 g ai/ha, applied to paddy water, visual rating after 13 to 14 days, scale 0 to 100 (0 no effect, 100 complete control)
Procedure, shortened: as §2

ryegrass, Italian [17] = experiment: Test C postemergence; assay type: in vivo, Lolium multiflorum; conditions: postemergence, 10 days
Procedure, shortened: as §1

barnyardgrass [18] = experiment: Test C postemergence; assay type: in vivo, Echinochloa crusgalli; conditions: postemergence, 10 days
Procedure, shortened: as §1

barnyardgrass [19] = experiment: Test D flooded paddy test; assay type: in vivo, Echinochloa crus-galli; conditions: 250 g ai/ha, applied to paddy water, visual rating after 13 to 14 days, scale 0 to 100 (0 no effect, 100 complete control)
Procedure, shortened: as §2

kochia [20] = experiment: Test C preemergence; assay type: in vivo, Bassia scoparia; conditions: preemergence, 0 to 100 scale (0 no effect, 100 complete control)
Procedure, shortened: as §1

galium = experiment: Test C postemergence; assay type: in vivo, Galium aparine; conditions: postemergence, 10 days
Procedure, shortened: as §1

pigweed, palmer [21] = experiment: Test C preemergence; assay type: in vivo, Amaranthus palmeri; conditions: preemergence, 0 to 100 scale (0 no effect, 100 complete control)
Procedure, shortened: as §1

ragweed [22] = experiment: Test C preemergence; assay type: in vivo, Ambrosia artemisiifolia; conditions: preemergence, 0 to 100 scale (0 no effect, 100 complete control)
Procedure, shortened: as §1

green foxtail [23] = experiment: Test C preemergence; assay type: in vivo, Setaria viridis; conditions: preemergence, 0 to 100 scale (0 no effect, 100 complete control)
Procedure, shortened: as §1

[24] = 125 g ai/ha, 0 to 100 scale, 0 no effect, 100 complete control
[25] = 500 g ai/ha, 0 to 100 scale (0 no effect, 100 complete control)

CC(C)c1ncn(-c2cccc(C(=O)N3CC(C(F)(F)F)Oc4c(Cl)cccc43)c2)n1 (single isomer, unassigned) [Compound 288]
Plant response rating, Horseweed (horseweed; [24]): 0
Plant response rating, Horseweed (horseweed; [25]): 0
Barnyardgrass plant response rating (barnyardgrass [1]; 500 g ai/ha): 30
Barnyardgrass plant response rating (barnyardgrass [1]; Test C, 125 g ai/ha): 0
Plant response rating, Pigweed, Palmer (pigweed, palmer [2]; [24]): 10
Plant response rating, Pigweed, Palmer (pigweed, palmer [2]; [25]): 50
Plant response rating, Soybean (soybean [3]; [24]): 60
Plant response rating, Soybean (soybean [3]; [25]): 80
Wheat plant response rating (wheat [4]; 500 g ai/ha): 20
Wheat plant response rating (wheat [4]; Test C, 125 g ai/ha): 0
Oat, Wild plant response rating (oat, wild [5]; 500 g ai/ha): 20
Oat, Wild plant response rating (oat, wild [5]; Test C, 125 g ai/ha): 20
Plant response rating, Ducksalad (Flood) (ducksalad): 0
Plant response rating, Sedge, Umbrella (Flood) (sedge, umbrella): 0
Plant response rating, Wheat (wheat [6]; [24]): 10
Plant response rating, Wheat (wheat [6]; [25]): 20
Corn plant response rating (corn [7]; 500 g ai/ha): 10
Corn plant response rating (corn [7]; Test C, 125 g ai/ha): 0
Blackgrass plant response rating (blackgrass [8]; 500 g ai/ha): 60
Blackgrass plant response rating (blackgrass [8]; Test C, 125 g ai/ha): 10
Plant response rating, Kochia (kochia [9]; [24]): 40
Plant response rating, Kochia (kochia [9]; [25]): 80
Plant response rating, Blackgrass (blackgrass [10]; [24]): 0
Plant response rating, Blackgrass (blackgrass [10]; [25]): 10
Ryegrass, Italian plant response rating (ryegrass, Italian [11]; 500 g ai/ha): 80
Ryegrass, Italian plant response rating (ryegrass, Italian [11]; Test C, 125 g ai/ha): 80
Plant response rating, Corn (corn [12]; [24]): 0
Plant response rating, Corn (corn [12]; [25]): 10
Plant response rating, Ragweed (ragweed [13]; [24]): 30
Plant response rating, Ragweed (ragweed [13]; [25]): 30
Plant response rating, Foxtail, Green (green foxtail [14]; [24]): 10
Plant response rating, Foxtail, Green (green foxtail [14]; [25]): 20
Plant response rating, Oat, Wild (oat, wild [15]; [24]): 0
Plant response rating, Oat, Wild (oat, wild [15]; [25]): 0
Soybean plant response rating (soybean [16]; 500 g ai/ha): 40
Soybean plant response rating (soybean [16]; Test C, 125 g ai/ha): 40
Plant response rating, Rice (Flood) (rice): 0
Plant response rating, Ryegrass, Italian (ryegrass, Italian [17]; [24]): 0
Plant response rating, Ryegrass, Italian (ryegrass, Italian [17]; [25]): 20
Plant response rating, Barnyardgrass (barnyardgrass [18]; [24]): 10
Plant response rating, Barnyardgrass (barnyardgrass [18]; [25]): 10
Plant response rating, Barnyardgrass (Flood) (barnyardgrass [19]): 0
Kochia plant response rating (kochia [20]; 500 g ai/ha): 50
Kochia plant response rating (kochia [20]; Test C, 125 g ai/ha): 10
Plant response rating, Galium (galium; [24]): 60
Plant response rating, Galium (galium; [25]): 50
Pigweed, Palmer plant response rating (pigweed, palmer [21]; 500 g ai/ha): 80
Pigweed, Palmer plant response rating (pigweed, palmer [21]; Test C, 125 g ai/ha): 50
Ragweed plant response rating (ragweed [22]; 500 g ai/ha): 0
Ragweed plant response rating (ragweed [22]; Test C, 125 g ai/ha): 0
Foxtail, Green plant response rating (green foxtail [23]; 500 g ai/ha): 70
Foxtail, Green plant response rating (green foxtail [23]; Test C, 125 g ai/ha): 0
